Results on 16 molecules are retold here after ChEMBL document CHEMBL1159184, “7-Silylcamptothecins (silatecans): A new family of camptothecin antitumor agents” (Bioorg Med Chem Lett, 1997).

The structures appear in SMILES notation.

One test has as its system 833K. Description: Tested in vitro for growth inhibitory activity against 833K (human teratorcarcinoma) cells. The test is classed as functional, cell-based.
Test [1] has as its system DC3F. Briefly: Tested in vitro for growth inhibitory activity against DC-3F (hamster lung) cells. The note with it: Cricetulus griseus. The test is classed as functional, cell-based.
In a further test the test system is HL-60. Description: Tested in vitro for growth inhibitory activity against HL60 (human promyelocytic leukemic) cells. It is filed as functional, cell-based.
Test [2] is described as follows: The compound was evaluated for inhibition of topoisomerase I mediated DNA relaxation of supercoiled DNA. The test is classed as functional.
The nature of test [3]: The compound was evaluated for enhancement of topoisomerase I mediated DNA cleavage of supercoiled DNA; 0.1-1. The test is classed as functional.
Test [4] is described as follows: The compound was evaluated for inhibition of topoisomerase I mediated DNA relaxation of supercoiled DNA; 0.1-1. The test is classed as functional.
Test [5] is described as follows: The compound was evaluated for inhibition of topoisomerase I mediated DNA relaxation of supercoiled DNA; 5-20. The test is classed as functional.
Test [6] is described as follows: The compound was evaluated for enhancement of topoisomerase I mediated DNA cleavage of supercoiled DNA; 1-2. The test is classed as functional.
The nature of test [7]: The compound was evaluated for inhibition of topoisomerase I mediated DNA relaxation of supercoiled DNA; 1-2. The test is classed as functional.
Test [8] concerns DC3F. Briefly: The compound was tested in vitro for growth inhibitory activity against DC-3F (hamster lung) cells; Inactive. The test is classed as functional, cell-based, Cricetulus griseus.
Test [9] in a line: The compound was evaluated for enhancement of topoisomerase I mediated DNA cleavage of supercoiled DNA; 2-5. It is filed as functional.

Turning to `CC[C@@]1(O)C(=O)OCc2c1cc1n(c2=O)Cc2c-1nc1cc(N)ccc1c2[Si](C)(C)C`, the IC50 was found to be 7.4 nM in the test on 833K, 6.4 nM with DC3F [1] and 2.6 nM in the test with HL-60.

With `CC[C@@]1(O)C(=O)OCc2c1cc1n(c2=O)Cc2c-1nc1ccc(O)cc1c2[Si](C)(C)C`, the IC50 in the test on 833K came out at 7 nM; with DC3F [1] it was 6.9 nM; in the test on HL-60, 2.6 nM. For the same molecule, the Inhibition in test [2] is less than 0.1 µM. The Enhancement in [3] turned out to be 0.1 µM.

On to `CC[C@@]1(O)C(=O)OCc2c1cc1n(c2=O)Cc2c-1nc1cccc(F)c1c2[Si](C)(C)C`, for which the figures for the IC50 in the test with 833K, in the test on DC3F [1] and with HL-60 were 2.9 nM, 8.2 nM and 3 nM, respectively. Also, the Inhibition in [4] was found to be 0.1 µM. The Enhancement in [3] amounted to 0.1 µM.

Turning to `CCC(=O)OCc1c([C@@](O)(CC)C(=O)NCCN(C)C)cc2n(c1=O)Cc1c-2nc2ccc(O)cc2c1[Si](C)(C)C`, the IC50 with 833K amounted to 15 nM; in the test with DC3F [1], 14.2 nM; with HL-60 it was 9.7 nM. For the same molecule, the Inhibition in test [5] turned out to be 5 µM. Also, the Enhancement in test [6] is 1 µM.

As for `CC[C@@]1(O)C(=O)OCc2c1cc1n(c2=O)Cc2c-1nc1ccccc1c2[Si](C)(C)C`, the IC50 in the test with 833K turned out to be 5.6 nM; with DC3F [1], 4.2 nM; with HL-60, 3.8 nM. This molecule yielded an Inhibition in test [4] of 1 µM. For the same molecule, in test [3], the Enhancement is 0.1 µM.

Turning to `CC[C@@]1(O)C(=O)OCc2c1cc1n(c2=O)Cc2c-1nc1c(F)c(F)ccc1c2[Si](C)(C)C`, the results for the IC50 in the test with 833K, with DC3F [1] and in the test on HL-60 were 2.1 nM, 2.5 nM and 1.01 nM, respectively. This molecule showed an Inhibition in [7] of 1 µM. Moreover, the Enhancement in [6] was 1 µM.

Regarding `CC[C@@]1(O)C(=O)OCc2c1cc1n(c2=O)Cc2cc3ccccc3nc2-1` [CAMPTOTHECIN], the results for the IC50 with 833K, in the test with DC3F [1] and with HL-60 were 10 nM, 6 nM and 5 nM, respectively. The Inhibition in test [7] came to 1 µM. Moreover, the Enhancement in [6] was found to be 1 µM.

For `CC[C@@]1(O)C(=O)OCc2c1cc1n(c2=O)Cc2c-1nc1cc(F)ccc1c2[Si](C)(C)C`, the IC50 turned out to be 0.92 nM in the test with 833K, 2 nM in the test on DC3F [1] and 0.75 nM in the test with HL-60. This molecule also displayed an Inhibition in test [2] of less than 0.1 µM. Further, the Enhancement in test [3] is 0.1 µM.

`CC[C@@]1(O)C(=O)OCc2c1cc1n(c2=O)Cc2c-1nc1ccc(OC(C)=O)cc1c2[Si](C)(C)C`: the results for the IC50 with DC3F [1] and in the test on HL-60 were 6.7 nM and 2.7 nM, respectively. The molecule also yielded an Inhibition in [2] of less than 0.1 µM. The Enhancement in [3] is 0.1 µM.

For the molecule `CC[C@@]1(O)C(=O)OCc2c1cc1n(c2=O)Cc2c-1nc1ccc(CCc3ccc4nc5c(c([Si](C)(C)C)c4c3)Cn3c-5cc4c(c3=O)COC(=O)[C@]4(O)CC)cc1c2[Si](C)(C)C`, the results for the IC50 with 833K, in the test with DC3F [8] and in the test on HL-60 were 84 nM, “Not Active” and 53 nM, respectively. In addition, in [2], the Inhibition was greater than 20 µM.

With `CCc1c2c(nc3ccc(N4CCCC4N4CCCC4OC(N)=O)cc13)-c1cc3c(c(=O)n1C2)COC(=O)[C@]3(O)CC` (stereo not given in full), the IC50 in the test on 833K was found to be 487 nM; in the test on DC3F [1], 372 nM; in the test with HL-60, 270 nM.

For the molecule `CC[C@@]1(O)C(=O)OCc2c1cc1n(c2=O)Cc2c-1nc1ccccc1c2[Si](C)(C)C(C)(C)C`, the IC50 is 1.2 nM with 833K, 2.9 nM with DC3F [1] and 0.12 nM in the test on HL-60. The Inhibition in test [4] stood at 1 µM. For the same molecule, the Enhancement in [3] amounted to 0.1 µM.

`CC[C@@]1(O)C(=O)OCc2c1cc1n(c2=O)Cc2c-1nc1ccc(N3CCCC3N3CCCC3OC(N)=O)cc1c2[Si](C)(C)C` (stereo not given in full): the IC50 in the test with 833K is 214 nM; with DC3F [1] it was 256 nM; in the test on HL-60 it was 66 nM.

In the case of `CC[C@@]1(O)C(=O)OCc2c1cc1n(c2=O)Cc2c-1nc1ccc(N)cc1c2[Si](C)(C)C`, the IC50 with 833K amounted to 5.7 nM; with DC3F [1] it was 0.72 nM; with HL-60, 0.52 nM.

Turning to `CC[C@@]1(O)C(=O)OCc2c1cc1n(c2=O)Cc2c-1nc1ccccc1c2[Si](c1ccccc1)(c1ccccc1)C(C)(C)C`, the IC50 came out at 243 nM in the test on 833K, 663 nM in the test with DC3F [1] and 339 nM in the test on HL-60. The molecule also displayed an Inhibition in test [5] of 5 µM. The Enhancement in [9] worked out at 2 µM.

Take `CC[C@@]1(O)C(=O)OCc2c1cc1n(c2=O)Cc2c-1nc1cc(F)c(N)cc1c2[Si](C)(C)C`: the IC50 with 833K came to 0.14 nM; in the test with DC3F [1] it was 0.29 nM; in the test with HL-60, 0.07 nM. In addition, the Inhibition in test [4] turned out to be 0.1 µM. Besides, the Enhancement in test [3] amounted to 0.1 µM.
